Starred links: 1 amine or outer side, 2 acyl side, 3 side chain; linkers in the order of their positions; H or OH if unused. Positions of bridges follow the written chain, without caps; N, C: chain ends. Residues, ends and D or L forms follow the SMILES beside them. *: point of attachment. C20 diacid = O=C(O)CCCCCCCCCCCCCCCCCCC(=O)*; C18 diacid = O=C(O)CCCCCCCCCCCCCCCCC(=O)*; γGlu = O=C(O)[C@H](CCC(=O)[*:2])N[*:1]
Test: Assay (III) ThT fibrillation assay for physical stability
Type: physicochemical
Details: for ThT pH 4.0 lag time: pH 4.0, ThT fibrillation assay
How it was run: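 Freshly prepared, pH-adjusted formulations with 1 μM ThT incubated at 37 °C under 960 rpm orbital shaking (1 mm), fluorescence (ex 444, em 485 nm) read every 20 min. […] Peptide content before and after measured by reverse-phase HPLC against pramlintide standard.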

ThT pH 4.0 lag time [h] | ThT pH 4.0 lag time (physical stability in fibrillogenesis assay) [h] | Structure (SMILES)
>45 | – | CC[C@H](C)[C@H](NC(=O)[C@@H]1CCCN1C(=O)CNC(=O)[C@H](Cc1ccccc1)NC(=O)[C@H](CC(N)=O)NC(=O)[C@H](CC(N)=O)NC(=O)[C@H](CO)NC(=O)[C@H](CO)NC(=O)[C@H](Cc1c[nH]cn1)NC(=O)[C@H](Cc1c[nH]cn1)NC(=O)[C@H](CC(C)C)NC(=O)[C@H](Cc1ccccc1)NC(=O)[C@H](CCC(=O)O)NC(=O)[C@H](C)NC(=O)[C@H](CC(C)C)NC(=O)[C@H](CCCNC(=N)N)NC(=O)[C@H](CCC(N)=O)NC(=O)[C@@H](NC(=O)[C@H](C)NC(=O)[C@@H]1CSSC[C@H](NC(=O)[C@H](CCCNC(=N)N)NC(=O)CC[C@H](NC(=O)CCCCCCCCCCCCCCCCCCC(=O)O)C(=O)O)C(=O)N[C@@H](CC(N)=O)C(=O)N[C@@H]([C@@H](C)O)C(=O)N[C@@H](C)C(=O)N[C@@H]([C@@H](C)O)C(=O)N1)[C@@H](C)O)C(=O)N[C@@H](CC(C)C)C(=O)N1CCC[C@H]1C(=O)N1CCC[C@H]1C(=O)N[C@H](C(=O)N[C@@H](CC(N)=O)C(=O)N[C@H](C(=O)NCC(=O)N[C@@H](CO)C(=O)N[C@@H](Cc1c[nH]cn1)C(=O)N[C@H](C(=O)N[C@@H](Cc1ccc(O)cc1)C(N)=O)[C@@H](C)O)C(C)C)[C@@H](C)O [Example 95, N-alpha-[(S)-4-Carboxy-4-(19-carboxynonadecanoylamino)butyryl]-[Arg1,Glu14,His17,His35]-pramlintide] ({C20 diacid-γGlu}-RCNTATCATQRLAEFLHHSSNNFGPILPPTNVGSHTY-NH2; disulfide 2-7 (inferred))
>45 | >45 | CC[C@H](C)[C@H](NC(=O)[C@@H]1CCCN1C(=O)CNC(=O)[C@H](Cc1ccccc1)NC(=O)[C@H](CC(N)=O)NC(=O)[C@H](CCC(N)=O)NC(=O)[C@H](CO)NC(=O)[C@H](CO)NC(=O)[C@H](Cc1c[nH]cn1)NC(=O)[C@H](CCCNC(=N)N)NC(=O)[C@H](CC(C)C)NC(=O)[C@H](Cc1ccccc1)NC(=O)[C@H](CCC(=O)O)NC(=O)[C@H](C)NC(=O)[C@H](CC(C)C)NC(=O)[C@H](CCCNC(=N)N)NC(=O)[C@H](CCC(N)=O)NC(=O)[C@@H](NC(=O)[C@H](C)NC(=O)[C@@H]1CSSC[C@H](NC(=O)[C@H](CCC(=O)O)NC(=O)[C@H](CCCNC(=N)N)NC(=O)[C@H](CCC(=O)O)NC(=O)CC[C@H](NC(=O)CCCCCCCCCCCCCCCCCCC(=O)O)C(=O)O)C(=O)N[C@@H](CC(N)=O)C(=O)N[C@@H]([C@@H](C)O)C(=O)N[C@@H](C)C(=O)N[C@@H]([C@@H](C)O)C(=O)N1)[C@@H](C)O)C(=O)N[C@@H](CC(C)C)C(=O)N1CCC[C@H]1C(=O)N1CCC[C@H]1C(=O)N[C@H](C(=O)N[C@@H](CCC(N)=O)C(=O)N[C@H](C(=O)NCC(=O)N[C@@H](CO)C(=O)N[C@@H](CCC(N)=O)C(=O)N[C@H](C(=O)N1CCC[C@H]1C(N)=O)[C@@H](C)O)C(C)C)[C@@H](C)O [Example 163, N-alpha-[(S)-4-Carboxy-4-(19-carboxynonadecanoylamino)butyryl]-Glu-Arg-[Glu1,Glu14,Arg17,Gln21,Gln31,Gln35,Pro37]-pramlintide] ({C20 diacid-γGlu}-ERECNTATCATQRLAEFLRHSSQNFGPILPPTQVGSQTP-NH2; disulfide 4-9 (inferred))
>45 | – | CC[C@H](C)[C@H](NC(=O)[C@@H]1CCCN1C(=O)CNC(=O)[C@H](Cc1ccccc1)NC(=O)[C@H](CC(N)=O)NC(=O)[C@H](CC(N)=O)NC(=O)[C@H](CO)NC(=O)[C@H](CO)NC(=O)[C@H](Cc1c[nH]cn1)NC(=O)[C@H](CCCNC(=N)N)NC(=O)[C@H](CC(C)C)NC(=O)[C@H](Cc1ccccc1)NC(=O)[C@H](CCC(=O)O)NC(=O)[C@H](C)NC(=O)[C@H](CC(C)C)NC(=O)[C@H](CCCNC(=N)N)NC(=O)[C@H](CCC(N)=O)NC(=O)[C@@H](NC(=O)[C@H](C)NC(=O)[C@@H]1CSSC[C@H](NC(=O)[C@H](CCCNC(=N)N)NC(=O)[C@H](CCC(=O)O)NC(=O)CC[C@H](NC(=O)CCCCCCCCCCCCCCCCCCC(=O)O)C(=O)O)C(=O)N[C@@H](CC(N)=O)C(=O)N[C@@H]([C@@H](C)O)C(=O)N[C@@H](C)C(=O)N[C@@H]([C@@H](C)O)C(=O)N1)[C@@H](C)O)C(=O)N[C@@H](CC(C)C)C(=O)N1CCC[C@H]1C(=O)N1CCC[C@H]1C(=O)N[C@H](C(=O)N[C@@H](CC(N)=O)C(=O)N[C@H](C(=O)NCC(=O)N[C@@H](CO)C(=O)N[C@@H](CC(N)=O)C(=O)N[C@H](C(=O)N1CCC[C@H]1C(N)=O)[C@@H](C)O)C(C)C)[C@@H](C)O [compound 156] ({C20 diacid-γGlu}-ERCNTATCATQRLAEFLRHSSNNFGPILPPTNVGSNTP-NH2; disulfide 3-8 (inferred))
– | >45 | CC[C@H](C)[C@H](NC(=O)[C@@H]1CCCN1C(=O)CNC(=O)[C@H](Cc1ccccc1)NC(=O)[C@H](CC(N)=O)NC(=O)[C@H](CC(N)=O)NC(=O)[C@H](CO)NC(=O)[C@H](CO)NC(=O)[C@H](Cc1c[nH]cn1)NC(=O)[C@H](Cc1cnc[nH]1)NC(=O)[C@H](CC(C)C)NC(=O)[C@H](Cc1ccccc1)NC(=O)[C@H](CCC(=O)O)NC(=O)[C@H](C)NC(=O)[C@H](CC(C)C)NC(=O)[C@H](CCCNC(=N)N)NC(=O)[C@H](CCC(N)=O)NC(=O)[C@@H](NC(=O)[C@H](C)NC(=O)[C@@H]1CSSC[C@H](NC(=O)[C@H](CCCCN)NC(=O)CC[C@H](NC(=O)CCCCCCCCCCCCCCCCCCC(=O)O)C(=O)O)C(=O)N[C@@H](CC(N)=O)C(=O)N[C@@H]([C@@H](C)O)C(=O)N[C@@H](C)C(=O)N[C@@H]([C@@H](C)O)C(=O)N1)[C@@H](C)O)C(=O)N[C@@H](CC(C)C)C(=O)N1CCC[C@H]1C(=O)N1CCC[C@H]1C(=O)N[C@H](C(=O)N[C@@H](CC(N)=O)C(=O)N[C@H](C(=O)NCC(=O)N[C@@H](CO)C(=O)N[C@@H](CC(N)=O)C(=O)N[C@H](C(=O)N1CCC[C@H]1C(N)=O)[C@@H](C)O)C(C)C)[C@@H](C)O [Example 52, N-alpha-[(S)-4-Carboxy-4-(19-carboxynonadecanoylamino)butyryl]-[Glu14,His17,Pro37]-pramlintide] ({C20 diacid-γGlu}-KCNTATCATQRLAEFLHHSSNNFGPILPPTNVGSNTP-NH2; disulfide 2-7)
>45 | >45 | CC[C@H](C)[C@H](NC(=O)[C@@H]1CCCN1C(=O)CNC(=O)[C@H](Cc1ccccc1)NC(=O)[C@H](CC(N)=O)NC(=O)[C@H](CC(N)=O)NC(=O)[C@H](CO)NC(=O)[C@H](CO)NC(=O)[C@H](Cc1c[nH]cn1)NC(=O)[C@H](CCCNC(=N)N)NC(=O)[C@H](CC(C)C)NC(=O)[C@H](Cc1ccccc1)NC(=O)[C@H](CCC(=O)O)NC(=O)[C@H](C)NC(=O)[C@H](CC(C)C)NC(=O)[C@H](CCCNC(=N)N)NC(=O)[C@H](CCC(N)=O)NC(=O)[C@@H](NC(=O)[C@H](C)NC(=O)[C@@H]1CSSC[C@H](NC(=O)[C@H](CCCCN)NC(=O)[C@H](CCC(=O)O)NC(=O)CC[C@H](NC(=O)CCCCCCCCCCCCCCCCCCC(=O)O)C(=O)O)C(=O)N[C@@H](CC(N)=O)C(=O)N[C@@H]([C@@H](C)O)C(=O)N[C@@H](C)C(=O)N[C@@H]([C@@H](C)O)C(=O)N1)[C@@H](C)O)C(=O)N[C@@H](CC(C)C)C(=O)N1CCC[C@H]1C(=O)N1CCC[C@H]1C(=O)N[C@H](C(=O)N[C@@H](CC(N)=O)C(=O)N[C@H](C(=O)NCC(=O)N[C@@H](CO)C(=O)N[C@@H](Cc1c[nH]cn1)C(=O)N[C@H](C(=O)N[C@@H](Cc1ccc(O)cc1)C(N)=O)[C@@H](C)O)C(C)C)[C@@H](C)O [Example 58, N-alpha-[(S)-4-Carboxy-4-(19-carboxynonadecanoylamino)butyryl]-Glu-[Glu14,Arg17,His35]-pramlintide] ({C20 diacid-γGlu}-EKCNTATCATQRLAEFLRHSSNNFGPILPPTNVGSHTY-NH2; disulfide 3-8 (inferred); C-terminus assumed)
30 | – | CC[C@H](C)[C@H](NC(=O)[C@@H]1CCCN1C(=O)CNC(=O)[C@H](Cc1ccccc1)NC(=O)[C@H](CC(N)=O)NC(=O)[C@H](CC(N)=O)NC(=O)[C@H](CO)NC(=O)[C@H](CO)NC(=O)[C@H](Cc1c[nH]cn1)NC(=O)[C@H](CCCNC(=N)N)NC(=O)[C@H](CC(C)C)NC(=O)[C@H](Cc1ccccc1)NC(=O)[C@H](CCC(=O)O)NC(=O)[C@H](C)NC(=O)[C@H](CC(C)C)NC(=O)[C@H](CCCNC(=N)N)NC(=O)[C@H](CCC(N)=O)NC(=O)[C@@H](NC(=O)[C@H](C)NC(=O)[C@@H]1CSSC[C@H](NC(=O)[C@H](CCCCN)NC(=O)[C@H](CCC(=O)O)NC(=O)CC[C@H](NC(=O)CCCCCCCCCCCCCCCCC(=O)O)C(=O)O)C(=O)N[C@@H](CC(N)=O)C(=O)N[C@@H]([C@@H](C)O)C(=O)N[C@@H](C)C(=O)N[C@@H]([C@@H](C)O)C(=O)N1)[C@@H](C)O)C(=O)N[C@@H](CC(C)C)C(=O)N1CCC[C@H]1C(=O)N1CCC[C@H]1C(=O)N[C@H](C(=O)N[C@@H](CC(N)=O)C(=O)N[C@H](C(=O)NCC(=O)N[C@@H](CO)C(=O)N[C@@H](Cc1c[nH]cn1)C(=O)N[C@H](C(=O)N[C@@H](Cc1ccc(O)cc1)C(N)=O)[C@@H](C)O)C(C)C)[C@@H](C)O [Example 62, N-alpha-[(S)-4-Carboxy-4-(17-carboxyheptadecanoylamino)butyryl]-Glu-[Glu14,Arg17,His35]-pramlintide] ({C18 diacid-γGlu}-EKCNTATCATQRLAEFLRHSSNNFGPILPPTNVGSHTY-NH2; disulfide 3-8 (inferred); C-terminus assumed)
